{"source": "patent US8173618B2", "about": "“Formulations for reducing neuronal degeneration” (University of Massachusetts, priority 2003, dated 2012)", "test_system": "murine cortical neurons", "test": "PHF-1 immunofluorescence in murine cortical neurons with or without folate", "assay_type": "cell-based, mice", "conditions": "folate deficiency, two hours", "method": "For immunocytochemistry to detect paired helical filament-1 (PHF-1) staining (as an index of tau phosphorylation), cells were fixed for 15 minutes with 4% paraformaldehyde in 0.1 M phosphate buffer and immunostained by sequential reaction with a mouse monoclonal PHF-1 antibody that was raised against tau from paired helical filaments isolated from the brains of Alzheimer disease patients. Incubation with PHF-1 antibody was followed by rhodamine conjugated goat anti-mouse IgG and visualization using methods known in the art. […] In these experiments, SH-SY-5Y cells were cultured in folate-deficient Dulbecco's Modified Essential Medium (DMEM; Sigma) in the absence of serum for two hours. Cortical neurons were prepared from 12 day embryonic C57/B16 day old mice using known methods. The cortical neurons were cultured for 3 days in neurobasal medium with B27 supplements ([…] et al., 1999, J. Biol. Chem., 274:30322-30327). […] Both the SH-SY-5Y cultures and the cortical neurons were processed for PHF-1 (paired helical filament 1) immunofluorescence using known methods ([…] et al., 1999 supra). Control cells cultured in the continued presence of normal folate levels were also processed. Phospho-tau was also examined using immunoblot analysis. […]"}
{"molecule": "Nc1nc2ncc(CNc3ccc(C(=O)N[C@@H](CCC(=O)O)C(=O)O)cc3)nc2c(=O)[nH]1", "note": "[folate, folic acid]", "values": [{"measurement": "average increase in PHF-1 immunofluorescence", "value": 1.5, "unit": "fold"}]}
